The values below come from patent publication US20180148418A1, “AMIDO-SUBSTITUTED CYCLOHEXANE DERIVATIVES” (Bayer Pharma Aktiengesellschaft, priority 2015, published 2018).

Test [1] has as its system wildtype Wnt signaling cascade. Briefly: HEK293 TOP assay (Super TopFlash luciferase reporter, Wnt-3a stimulated). The test is classed as cell-based. The settings on record: Homo sapiens, HEK293, 16 h, HEK293 TOP reporter cells, Wnt3a at EC50, 16 hours. An outline of the steps: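 HEK293 cells stably carrying Super TopFlash (TOP) run in parallel with FOP cells, 10000/well plated 24 h ahead, stimulated with recombinant human Wnt-3a. Compounds tested 50 μM to 15 nM in 3.16-fold steps in CAFTY buffer pH 7.4 with 2 mM Ca^2+ and 0.01% BSA; luciferase read-out.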
Background: Reporter assays use an easily measured gene product as a stand-in for the process of interest.

The subject of test [2] is HEK293 cells cotransfected with the FOP control vector. In words: HEK293 FOP assay (control reporter with non-functional TCF elements). The test is classed as cell-based. The note with it: Homo sapiens, 16 hours. An outline of the steps:
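Stable HEK293 line carrying FOP control reporter (randomized non-functional TCF sites, with pcDNA3), Geneticin-selected, plated 24 h before assay. Stimulated with recombinant human Wnt-3a (2500-5 ng/ml) and compounds 50 μM–15 nM (3.16-fold steps) in CAFTY buffer pH 7.4 with 2 mM Ca2+, 0.01% BSA, run parallel to TOP line.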

The next test concerns the target T1, TNKS2 (Homo sapiens, UniProt Q9H2K2).
T1 construct: purchased BPS Bioscience, San Diego, USA 80572 (TNKS2 Histone Ribosylation Assay Kit)
T1 sequence (Q9H2K2 1-1166): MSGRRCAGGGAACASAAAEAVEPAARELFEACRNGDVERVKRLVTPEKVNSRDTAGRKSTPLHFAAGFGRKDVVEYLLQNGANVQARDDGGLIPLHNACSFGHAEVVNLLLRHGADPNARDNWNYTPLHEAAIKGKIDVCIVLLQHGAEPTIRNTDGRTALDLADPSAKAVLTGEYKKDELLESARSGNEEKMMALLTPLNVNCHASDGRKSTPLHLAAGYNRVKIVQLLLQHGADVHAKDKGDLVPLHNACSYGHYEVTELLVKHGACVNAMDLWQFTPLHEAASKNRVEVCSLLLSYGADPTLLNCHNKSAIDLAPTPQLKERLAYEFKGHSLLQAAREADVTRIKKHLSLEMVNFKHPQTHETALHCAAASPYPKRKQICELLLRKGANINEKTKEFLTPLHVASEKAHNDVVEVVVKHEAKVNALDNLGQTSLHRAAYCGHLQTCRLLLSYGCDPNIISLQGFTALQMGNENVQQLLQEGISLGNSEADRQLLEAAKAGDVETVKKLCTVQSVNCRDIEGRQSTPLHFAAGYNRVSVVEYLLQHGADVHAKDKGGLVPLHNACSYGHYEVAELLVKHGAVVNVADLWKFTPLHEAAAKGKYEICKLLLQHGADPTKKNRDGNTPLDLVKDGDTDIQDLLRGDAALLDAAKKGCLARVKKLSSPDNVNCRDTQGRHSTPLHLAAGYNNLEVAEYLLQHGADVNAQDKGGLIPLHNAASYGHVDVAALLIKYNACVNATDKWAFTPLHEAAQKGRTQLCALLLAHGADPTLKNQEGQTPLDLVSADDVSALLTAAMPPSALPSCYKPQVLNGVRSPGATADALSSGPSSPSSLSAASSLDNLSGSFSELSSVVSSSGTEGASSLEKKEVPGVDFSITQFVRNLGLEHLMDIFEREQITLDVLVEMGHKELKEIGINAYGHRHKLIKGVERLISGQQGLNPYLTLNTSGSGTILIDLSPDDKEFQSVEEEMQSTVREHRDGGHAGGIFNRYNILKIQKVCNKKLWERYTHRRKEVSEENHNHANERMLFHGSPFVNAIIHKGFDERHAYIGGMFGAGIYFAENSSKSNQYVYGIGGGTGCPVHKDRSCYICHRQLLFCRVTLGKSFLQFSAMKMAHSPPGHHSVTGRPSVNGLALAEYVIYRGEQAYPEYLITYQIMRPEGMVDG
Briefly: TNKS2 Assay B (auto-parsylation, [3H]-NAD+ SPA). In kind it is biochemical. The note with it: 6 nM TNKS2, auto-parsylation, over night at room temperature.

Each structure is given as a SMILES string.

Usually IC50 stands for the concentration that inhibits the measured activity by half. Consider `COCC(C)NC(=O)c1nc[nH]c1C(=O)N[C@H]1CC[C@H](C(=O)Nc2cc(F)c(F)cc2Cl)CC1` (stereo partly drawn) [Example 87, N^5-{trans-4-[(2-chloro-4,5-difluorophenyl)carbamoyl]cyclohexyl}-N^4-(1-methoxypropan-2-yl)-1H-imidazole-4,5-dicarboxamide], for which the IC50 in test [1] was 60 nM; in test [2], no less than 50000 nM; on TNKS2, 51 nM.
For `COC[C@H](C)NC(=O)c1nc[nH]c1C(=O)N[C@H]1CC[C@H](C(=O)Nc2ccc(F)cc2Cl)CC1` [Example 83, N^5-{trans-4-[(2-chloro-4-fluorophenyl)carbamoyl]cyclohexyl}-N^4-[(2S)-1-methoxypropan-2-yl]-1H-imidazole-4,5-dicarboxamide], in that order: 240 nM, 29000 nM and 270 nM.
For `O=C(N[C@H]1CC[C@H](C(=O)Nc2ccc(F)cc2Cl)CC1)c1[nH]cnc1C(=O)N1CCC1` [Example 23, 4-(azetidin-1-ylcarbonyl)-N-{trans-4-[(2-chloro-4-fluorophenyl)carbamoyl]cyclohexyl}-1H-imidazole-5-carboxamide], in that order: 110 nM, no less than 50000 nM and 25 nM.
For `CNC(=O)c1nc[nH]c1C(=O)N[C@H]1CC[C@H](C(=O)Nc2ccc(F)cc2Cl)CC1` [Example 1, N^5-{trans-4-[(2-chloro-4-fluorophenyl)carbamoyl]cyclohexyl}-N^4-methyl-1H-imidazole-4,5-dicarboxamide], in that order: 52 nM, no less than 50000 nM and 72 nM.
Regarding `Cc1nc2c(C(=O)N[C@H]3CC[C@H](C(=O)Nc4c(F)cc(F)cc4Cl)CC3)cnn2c2c1CCC2` [Example 363, N-{trans-4-[(2-chloro-4,6-difluorophenyl)carbamoyl]cyclohexyl}-5-methyl-7,8-dihydro-6H-cyclopenta[e]pyrazolo[1,5-a]pyrimidine-3-carboxamide], the results for the IC50 (in test [1]; in test [2]; on TNKS2) were 21 nM, no less than 50000 nM and 19 nM, respectively.
The matching figures for `CNC(=O)c1[nH]cnc1C(=O)N[C@@H]1CC[C@@H](C(=O)Nc2ccc(F)cc2Cl)C[C@@H]1F` (racemic) [Example 31, N^4-{(1α,2α,4β)-4-[(2-chloro-4-fluorophenyl)carbamoyl]-2-fluorocyclohexyl}-N^5-methyl-1H-imidazole-4,5-dicarboxamide]: 250 nM, no less than 50000 nM and 120 nM.
Regarding `CNC(=O)c1ocnc1C(=O)N[C@H]1CC[C@H](C(=O)Nc2ccc(F)cc2Cl)CC1` [Example 30], the figures for the IC50 (in test [1]; in test [2]; at TNKS2) were 44000 nM, 40000 nM and greater than 10000 nM, respectively.
The matching figures for `O=C(NCC1CCCO1)c1nc[nH]c1C(=O)N[C@H]1CC[C@H](C(=O)Nc2cc(F)c(F)cc2Cl)CC1` (stereo partly drawn) [Example 86, N^5-{trans-4-[(2-chloro-4,5-difluorophenyl)carbamoyl]cyclohexyl}-N^4-(tetrahydrofuran-2-ylmethyl)-1H-imidazole-4,5-dicarboxamide]: 94 nM, 14000 nM and 22 nM.
The matching figures for `COC(C)(C)CNC(=O)c1nc[nH]c1C(=O)N[C@H]1CC[C@H](C(=O)Nc2ccc(F)cc2Cl)CC1` [Example 73, N^5-{trans-4-[(2-chloro-4-fluorophenyl)carbamoyl]cyclohexyl}-N^4-(2-methoxy-2-methylpropyl)-1H-imidazole-4,5-dicarboxamide]: 400 nM, 19000 nM and 190 nM.
The matching figures for `CNC(=O)c1[nH]cnc1C(=O)N[C@@H]1CC[C@@H](C(=O)Nc2ccc(F)cc2Cl)CC1(F)F` (stereo in doubt) [Example 32, N^4-{(trans)-4-[(2-chloro-4-fluorophenyl)carbamoyl]-2,2-difluorocyclohexyl}-N^5-methyl-1H-imidazole-4,5-dicarboxamide]: 270 nM, no less than 50000 nM and 280 nM.
For the compound `O=C(NCC1CCCO1)c1nc[nH]c1C(=O)N[C@H]1CC[C@H](C(=O)Nc2cc(N3CCOCC3)ccc2Cl)CC1` (stereo partly drawn) [Example 89, N^5-(trans-4-{[2-chloro-5-(morpholin-4-yl)phenyl]carbamoyl}cyclohexyl)-N^4-(tetrahydrofuran-2-ylmethyl)-1H-imidazole-4,5-dicarboxamide], the IC50 in test [1] amounted to 1200 nM; in test [2] it was 24000 nM; against TNKS2, 1600 nM.
The matching figures for `O=C(NCC1CCCO1)c1nc[nH]c1C(=O)N[C@H]1CC[C@H](C(=O)Nc2ccc(F)cc2Cl)CC1` (stereo partly drawn) [Example 78, N^5-{trans-4-[(2-chloro-4-fluorophenyl)carbamoyl]cyclohexyl}-N^4-(tetrahydrofuran-2-ylmethyl)-1H-imidazole-4,5-dicarboxamide]: 130 nM, 9700 nM and 89 nM.
Regarding `COC[C@@H](C)NC(=O)c1nc[nH]c1C(=O)N[C@H]1CC[C@H](C(=O)Nc2ccc(F)cc2Cl)CC1` [Example 84, N^5-{trans-4-[(2-chloro-4-fluorophenyl)carbamoyl]cyclohexyl}-N^4-[(2R)-1-methoxypropan-2-yl]-1H-imidazole-4,5-dicarboxamide], the IC50 is 230 nM in test [1], no less than 50000 nM in test [2] and 230 nM against TNKS2.
In the case of `COCC(C)NC(=O)c1nc[nH]c1C(=O)N[C@H]1CC[C@H](C(=O)Nc2c(F)cc(F)cc2Cl)CC1` (stereo partly drawn) [Example 65, N^5-{trans-4-[(2-chloro-4,6-difluorophenyl)carbamoyl]cyclohexyl}-N^4-(1-methoxypropan-2-yl)-1H-imidazole-4,5-dicarboxamide], the figures for the IC50 (in test [1]; in test [2]; against TNKS2) were 230 nM, no less than 50000 nM and 190 nM, respectively.
Take `Cc1cc(N2CC[C@]3(CC[C@@H](NC(=O)c4[nH]cnc4C(=O)NCCN4CCC(C)CC4)CC3)C2=O)c(Cl)cc1F` [Example 290, N^5-[(trans)-2-(2-chloro-4-fluoro-5-methylphenyl)-1-oxo-2-azaspiro[4.5]dec-8-yl]-N^4-[2-(4-methylpiperidin-1-yl)ethyl]-1H-imidazole-4,5-dicarboxamide]: the IC50 in test [1] came out at 4.7 nM; in test [2], 16000 nM; on TNKS2 it was 1.7 nM.
The matching figures for `COC(C)(C)CNC(=O)c1nc[nH]c1C(=O)N[C@H]1CC[C@H](C(=O)Nc2cc(N3CCOCC3)ccc2Cl)CC1` [Example 90, N^5-(trans-4-{[2-chloro-5-(morpholin-4-yl)phenyl]carbamoyl}cyclohexyl)-N^4-(2-methoxy-2-methylpropyl)-1H-imidazole-4,5-dicarboxamide]: 1900 nM, 33000 nM and 2700 nM.
For `Nc1nn2cccnc2c1C(=O)N[C@H]1CC[C@H](C(=O)Nc2ccc(F)cc2Cl)CC1` [Example 59, 2-amino-N-{trans-4-[(2-chloro-4-fluorophenyl)carbamoyl]cyclohexyl}pyrazolo[1,5-a]pyrimidine-3-carboxamide], in that order: 1300 nM, no less than 50000 nM and 500 nM.
